Experimental data published in patent US20180344805A1, “GLYCOLIPID COMPOUNDS AND THEIR USES IN THE TREATMENT OF TUMOURS” (Agalimmune Limited (GB/GB), priority 2015, published 2018).

How the values were obtained:
CHO-K1 cells [1] = test: Complement Dependent Cytotoxicity Assay; type: cell-based; conditions: for Lysis of glycolipid-labelled cells by human serum complement: CHO-K1 cells labelled with glycolipid, 50% human serum, FIGS. 3 to 5; for EC50: Cricetulus griseus, CHO-K1 cells labelled with glycolipid 1 hour at 37° C., then 50% human serum complement 1 hour at 37° C., cell viability by CellTiter-Glo
Procedure: CHO-K1 cells were harvested from cell culture flasks, counted and resuspended in PBS to a cell density of 5×10^6 cells/ml. Each glycolipid was serially diluted in PBS across nine 1.5 ml centrifuge tubes so that the final volume in the tubes was 100 μl. To each tube, 100 μl of the CHO-K1 cell suspension was added and the tubes incubated for 1 hour at 37° C. After an hour the tubes were placed on ice for 5 minutes and then the cells washed 3 times with 500 μl of ice-cold PBS. The cells were resuspended in a final volume of 250 μl of ice-cold PBS and 50 μl aliquots were transferred to duplicate wells of a 96 well plate. To each well containing cells 50 μl of 100% normal or heat-inactivated (30 minutes at 56° C.) human serum complement (Innovative Research) was added so that the final concentration of human serum was 50%. The plate was incubated at 37° C. for 1 hour, after which cell viability was measured using CellTiter-Glo reagent (Promega) read on a EnVision plate reader (Perkin Elmer).

CHO-K1 cells [2] = test: Anti-Gal Recruitment Assay; type: cell-based; conditions: CHO-K1 cells incubated with glycolipid 1 hour at 37° C.; monoclonal anti-Gal IgG1, FITC-conjugated anti-human IgG, flow cytometry; FIGS. 1 and 2
Procedure: CHO-K1 cells were harvested from cell culture flasks, counted and resuspended in PBS to a cell density of 5×10^6 cells/ml. Each glycolipid was serially diluted in PBS across nine 1.5 ml centrifuge tubes so that the final volume in the tubes was 100 μl. To each tube, 100 μl of the CHO-K1 cell suspension was added and the tubes incubated for 1 hour at 37° C. After an hour the cells were pelleted by centrifugation at 400 g for 3 minutes and resuspended in 500 μl of PBS+0.1% BSA. This was repeated twice more to wash the cells. After the final wash the cells were resuspended in 100 μl of monoclonal anti-Gal IgG1 diluted 1:8 in PBS+0.1% BSA. The tubes were incubated on ice for 30 minutes. After 30 minutes the cells were pelleted by centrifugation at 400 g for 3 minutes and resuspended in 500 μl of PBS+0.1% BSA. This was repeated twice more to wash the cells. After the final wash the cells were resuspended in 100 μl of FITC-conjugated mouse anti-human IgG (Biolegend) and the tubes incubated on ice for 30 minutes. After 30 minutes the cells were pelleted by centrifugation at 400 g for 3 minutes and resuspended in 500 μl of PBS+0.1% BSA. This was repeated twice more to wash the cells. […] After 5 minutes incubation on ice the cells were analysed on a Cytomics FC500 flow cytometer (Beckman Coulter). […]

SMILES	Lysis of glycolipid-labelled cells by human serum complement (CHO-K1 cells [1])	EC50 (CHO-K1 cells [1]) [µM]	Membrane incorporation and recruitment of anti-Gal antibody (CHO-K1 cells [2])
CCCCCCCC/C=C\CCCCCCCC(=O)OCC(COP(=O)(O)OCCNC(=O)CCCCC(=O)NCC(=O)NCC(=O)N(CC(=O)O)CC(=O)NCC(=O)NCC(=O)N(CC(=O)O)CC(=O)NCCNC(=O)CN(CC(=O)O)C(=O)CNC(=O)CNC(=O)CN(CC(=O)O)C(=O)CNC(=O)CNC(=O)CCCCC(=O)NCCCO[C@@H]1OC(CO)[C@@H](O[C@@H]2OC(CO)[C@H](O)[C@H](O[C@H]3OC(CO)[C@H](O)[C@H](O)C3O)C2O)[C@H](O)C1NC(C)=O)OC(=O)CCCCCCC/C=C\CCCCCCCC (some centres unmarked) [Example 1, Galili-CMG2-DOPE]	are lysed by human serum complement	7.02	incorporates into the plasma membrane of CHO-K1 cells and presents the alpha-Gal epitope for recognition by anti-Gal antibodies
CCCCCCCC/C=C\CCCCCCCC(=O)OCC(COP(=O)(O)OCCNC(=O)CCCCC(=O)NCCCO[C@@H]1OC(CO)[C@@H](O[C@@H]2OC(CO)[C@H](O)C(O[C@H]3OC(CO)[C@H](O)C(O)C3NC(C)=O)C2O)C(O)C1NC(C)=O)OC(=O)CCCCCCC/C=C\CCCCCCCC (some centres unmarked) [Example 3, GalNAcα1-3Galβ1-4GlcNAc-Ad-DOPE]	are lysed by human serum complement	86.8	
